Test results reported in ChEMBL document CHEMBL3046894, “Synthesis and Herbicidal Activity of Pyrimidinyl Salicylic and Thiosalicylic Acids” (J Pestic Sci, 1996).
The source made the active and inactive calls. The rule behind the calls is not given here.

Columns and labels:
[1] = system: Abutilon theophrasti; experiment: Post-emergence herbicidal activity against Abutilon theophrasti (velvetleaf) assessed as mortality at 1.6 g a.i/10 a applied 11 days after germination as foliar spray; type: functional; settings: 264 h
[2] = system: Abutilon theophrasti; experiment: Post-emergence herbicidal activity against Abutilon theophrasti (velvetleaf) assessed as mortality at 6.3 g a.i/10 a applied 11 days after germination as foliar spray; type: functional; settings: 264 h
[3] = system: Gossypium hirsutum; experiment: Post-emergence phytotoxicity against Gossypium hirsutum (cotton) assessed as mortality at 1.6 g a.i/10 a applied 11 days after germination as foliar spray; type: organism-based; settings: in vivo, other, 264 h
[4] = system: Gossypium hirsutum; experiment: Post-emergence phytotoxicity against Gossypium hirsutum (cotton) assessed as mortality at 6.3 g a.i/10 a applied 11 days after germination as foliar spray; type: organism-based; settings: in vivo, other, 264 h
[5] = (§1) Post-emergence phytotoxicity against Glycine max (soybean) assessed as mortality at 1.6 g a.i/10 a applied 11 days after germination as foliar spray; type: organism-based; settings: in vivo, 1.6 g a.i/10 a
[6] = system: Zea mays; experiment: (§2) Post-emergence phytotoxicity against Zea mays (maize) assessed as mortality at 1.6 g a.i/10 a applied 11 days after germination as foliar spray; type: organism-based; settings: in vivo, other, 264 h
[7] = system: Zea mays; experiment: Post-emergence phytotoxicity against Zea mays (maize) assessed as mortality at 6.3 g a.i/10 a applied 11 days after germination as foliar spray; type: organism-based; settings: in vivo, other, 264 h
[8] = system: Cyperus iria; experiment: Pre-emergence herbicidal activity against Cyperus iria assessed as growth inhibition at 25 g a.i/10 a; type: functional, organism-based
[9] = system: Chenopodium album; experiment: Pre-emergence herbicidal activity against Chenopodium album assessed as growth inhibition at 25 g a.i/10 a; type: functional, organism-based
[10] = system: Amaranthus retroflexus; experiment: Pre-emergence herbicidal activity against Amaranthus retroflexus assessed as growth inhibition at 25 g a.i/10 a; type: functional, organism-based
[11] = system: Persicaria nodosa; experiment: Pre-emergence herbicidal activity against Persicaria nodosa assessed as growth inhibition at 25 g a.i/10 a; type: functional, organism-based
[12] = system: Digitaria sanguinalis; experiment: Pre-emergence herbicidal activity against Digitaria sanguinalis (hairy crabgrass) assessed as growth inhibition at 25 g a.i/10 a; type: functional, organism-based
[13] = system: Echinochloa crus-galli; experiment: Pre-emergence herbicidal activity against Echinochloa crus-galli (barnyard grass) assessed as growth inhibition at 25 g a.i/10 a; type: functional, organism-based
[14] = system: Cyperus iria; experiment: Post-emergence herbicidal activity against Cyperus iria assessed as growth inhibition at 25 g a.i/10 a applied 11 days after germination as foliar spray; type: functional, organism-based
[15] = system: Chenopodium album; experiment: Post-emergence herbicidal activity against Chenopodium album assessed as growth inhibition at 25 g a.i/10 a applied 11 days after germination as foliar spray; type: functional, organism-based
[16] = system: Amaranthus retroflexus; experiment: Post-emergence herbicidal activity against Amaranthus retroflexus assessed as growth inhibition at 25 g a.i/10 a applied 11 days after germination as foliar spray; type: functional, organism-based
[17] = system: Persicaria nodosa; experiment: Post-emergence herbicidal activity against Persicaria nodosa assessed as growth inhibition at 25 g a.i/10 a applied 11 days after germination as foliar spray; type: functional, organism-based
[18] = system: Digitaria sanguinalis; experiment: Post-emergence herbicidal activity against Digitaria sanguinalis (hairy crabgrass) assessed as growth inhibition at 25 g a.i/10 a applied 11 days after germination as foliar spray; type: functional, organism-based
[19] = system: Echinochloa crus-galli; experiment: Post-emergence herbicidal activity against Echinochloa crus-galli (barnyard grass) assessed as growth inhibition at 25 g a.i/10 a applied 11 days after germination as foliar spray; type: functional, organism-based
[20] = system: Glycine max; experiment: as §1; type: organism-based; settings: in vivo, other, 264 h
[21] = system: Xanthium strumarium; experiment: Post-emergence herbicidal activity against Xanthium strumarium (cocklebur) assessed as mortality at 1.6 g a.i/10 a applied 11 days after germination as foliar spray; type: functional; settings: 264 h
[22] = (§3) Pre-emergence phytotoxicity against Gossypium hirsutum (cotton) assessed as mortality at 6.3 g a.i/10 a; type: organism-based; settings: in vivo, 6.3 g a.i/10 a, read-out: Activity
[23] = system: Gossypium hirsutum; experiment: Pre-emergence phytotoxicity against Gossypium hirsutum (cotton) assessed as mortality at 1.6 g a.i/10 a; type: organism-based; settings: in vivo, other
[24] = system: Glycine max; experiment: Pre-emergence phytotoxicity against Glycine max (soybean) assessed as mortality at 1.6 g a.i/10 a; type: organism-based; settings: in vivo, other
[25] = system: Glycine max; experiment: (§4) Pre-emergence phytotoxicity against Glycine max (soybean) assessed as mortality at 6.3 g a.i/10 a; type: organism-based; settings: in vivo, other
[26] = system: Zea mays; experiment: (§5) Pre-emergence phytotoxicity against Zea mays (maize) assessed as mortality at 1.6 g a.i/10 a; type: organism-based; settings: in vivo, other
[27] = system: Zea mays; experiment: Pre-emergence phytotoxicity against Zea mays (maize) assessed as mortality at 6.3 g a.i/10 a; type: organism-based; settings: in vivo, other
[28] = system: Glycine max; experiment: Post-emergence phytotoxicity against Glycine max (soybean) assessed as mortality at 6.3 g a.i/10 a applied 11 days after germination as foliar spray; type: organism-based; settings: in vivo, other, 264 h
[29] = system: Xanthium strumarium; experiment: Pre-emergence herbicidal activity against Xanthium strumarium (cocklebur) assessed as mortality at 1.6 g a.i/10 a; type: functional; settings: for mortality at 16 g/ha: Xanthium strumarium, pre-emergence
[30] = system: Xanthium strumarium; experiment: Pre-emergence herbicidal activity against Xanthium strumarium (cocklebur) assessed as mortality at 6.3 g a.i/10 a; type: functional
[31] = system: Gossypium hirsutum; experiment: as §3; type: organism-based; settings: in vivo, other
[32] = as §2; type: organism-based; settings: in vivo, 1.6 g a.i/10 a
[33] = system: Ipomoea lacunosa; experiment: Pre-emergence herbicidal activity against Ipomoea lacunosa assessed as mortality at 1.6 g a.i/10 a; type: functional; settings: for mortality at 16 g/ha: Ipomoea lacunosa, pre-emergence
[34] = system: Ipomoea lacunosa; experiment: Pre-emergence herbicidal activity against Ipomoea lacunosa assessed as mortality at 6.3 g a.i/10 a; type: functional; settings: Ipomoea lacunosa, pre-emergence
[35] = system: Echinochloa crus-galli; experiment: Pre-emergence herbicidal activity against Echinochloa crus-galli (barnyard grass) assessed as mortality at 6.3 g a.i/10 a; type: functional; settings: Echinochloa crus-galli, pre-emergence
[36] = as §4; type: organism-based; settings: in vivo, 6.3 g a.i/10 a, read-out: mortality
[37] = as §5; type: organism-based; settings: in vivo, 1.6 g a.i/10 a, read-out: mortality
[38] = system: Echinochloa crus-galli; experiment: Post-emergence herbicidal activity against Echinochloa crus-galli (barnyard grass) assessed as mortality at 6.3 g a.i/10 a applied 11 days after germination as foliar spray; type: functional; settings: 264 h
[39] = system: Abutilon theophrasti; experiment: Pre-emergence herbicidal activity against Abutilon theophrasti (velvetleaf) assessed as mortality at 6.3 g a.i/10 a; type: functional; settings: Abutilon theophrasti, pre-emergence

| SMILES | mortality at 16 g/ha [1] [%] | mortality at 63 g/ha [2] [%] | Activity [3] | Activity [4] | mortality at 264 h [5] [%] | Activity [6] | Activity [7] | growth inhibition (GI) [8] | growth inhibition (GI) [9] | growth inhibition (GI) [10] | growth inhibition (GI) [11] | growth inhibition (GI) [12] | growth inhibition (GI) [13] | growth inhibition (GI) [14] | growth inhibition (GI) [15] | growth inhibition (GI) [16] | growth inhibition (GI) [17] | growth inhibition (GI) [18] | growth inhibition (GI) [19] | Activity [24] | also measured |
| --- | --- | --- | --- | --- | --- | --- | --- | --- | --- | --- | --- | --- | --- | --- | --- | --- | --- | --- | --- | --- | --- |
| COc1cc(OC)nc(Oc2cccc(SC)c2C(=O)O)n1 | > 90 | > 90 | Toxic | Toxic | > 90 | Toxic | Toxic | inactive | inactive | Active | Active | inactive | inactive | Active | Active | Active | Active | Active | Active |  |  |
| COc1cc(OC)nc(Oc2cccc(N)c2C(=O)O)n1 | < 5 |  | Non-toxic | Toxic |  | Toxic | Toxic | Active | Active | Active | inactive | inactive | inactive | Active | Active | Active | Active | Active | Active |  | Activity [20]: Toxic; mortality at 16 g/ha [21]: < 5% |
| COc1cc(OC)nc(Sc2cccc([N+](=O)[O-])c2C(=O)O)n1 |  |  | Non-toxic | Non-toxic |  | Non-toxic | Non-toxic |  |  |  |  |  |  |  |  |  |  |  |  | Non-toxic | mortality [22]: < 50%; Activity [23]: < 50%; Activity [25]: Toxic; Activity [26]: Non-toxic; Activity [27]: Toxic; Activity [28]: Toxic; Activity [20]: Toxic; Activity [29]: <50%; Activity [30]: <50% |
| CCOc1cccc(Oc2nc(OC)cc(OC)n2)c1C(=O)O |  | > 90 | Non-toxic | Toxic | > 90 |  |  | Active | Active | Active | Active | Active | Active | Active | Active | Active | Active | Active | Active | Non-toxic | Activity [31]: Non-toxic; Activity [25]: Toxic; Activity [26]: Toxic; mortality at 264 h [32]: > 90%; mortality at 16 g/ha [29]: < 5%; mortality at 16 g/ha [33]: < 5%; mortality at 63 g/ha [34]: < 5% |
| COc1cc(OC)nc(Sc2cccc(F)c2C(=O)O)n1 |  |  | Non-toxic | Toxic | > 90 | Toxic | Toxic |  |  |  |  |  |  |  |  |  |  |  |  | Non-toxic | mortality [22]: < 50%; Activity [23]: < 50%; Activity [25]: Non-toxic; Activity [26]: Toxic; Activity [27]: Toxic; Activity [29]: <50%; Activity [33]: <50% |
| COc1cc(OC)nc(Oc2cccc(C(C)=O)c2C(=O)O)n1 |  |  |  |  |  |  |  | Active | Active | Active | Active | Active | Active | Active | Active | Active | Active | Active | Active |  |  |
| COc1cc(OC)nc(Oc2cccc(OC(F)F)c2C(=O)O)n1 | > 90 | > 90 | Toxic | Toxic | > 90 | Toxic | Toxic | Active | Active | Active | Active | Active | Active | Active | Active | Active | Active | Active | Active | Toxic | Activity [31]: Non-toxic; Activity [23]: Non-toxic; Activity [25]: Toxic; Activity [26]: Non-toxic; Activity [27]: Toxic; mortality at 16 g/ha [29]: < 5%; mortality at 16 g/ha [33]: < 5% |
| COc1cc(OC)nc(Oc2ccc(F)cc2C(=O)O)n1 |  |  |  |  |  |  |  | Active | Active | Active | Active | Active | Active | Active | Active | Active | Active | inactive | Active |  |  |
| COc1cc(OC)nc(Oc2cccc(F)c2C(=O)O)n1 | > 90 | > 90 | Toxic | Toxic |  | Toxic |  | Active | Active | Active | Active | Active | Active | Active | Active | Active | Active | Active | Active | Toxic | mortality at 63 g/ha [35]: > 90%; Activity [31]: Toxic; Activity [23]: Non-toxic; mortality [36]: > 90%; mortality [37]: > 90%; Activity [20]: Toxic; mortality at 63 g/ha [38]: > 90%; mortality at 16 g/ha [33]: < 5%; mortality at 63 g/ha [39]: > 90% |
